Values of other authors in patent US20140053594A1, “THERMALLY ACTIVATED PRESSURE BOOSTER FOR HEAT PUMPING AND POWER GENERATION” (priority 2011, published 2014).

Assays:
rat [1] = conditions: oral
rat [2] = conditions: intravenous
rat [3] = conditions: intraperitoneal
RBT = conditions: intraperitoneal, rabbit
rat [4] = tested on: rat

Structure (SMILES)	ORL-RAT LD50 (rat [1])	IVN-RAT LD50 (rat [2]) [mg/kg]	IPR-RAT LD50 (rat [3]) [mg/kg]	IPR-RBT LD50 (RBT)	Acute oral toxicity (LD50) (Mouse)	Acute dermal toxicity (LD50) (rat [4])
CN(C)C=O [DMF, dimethylformamide]	ORL-RAT LD50 2800 mg kg^−1	2000	1400	LD50 1000 mg kg^−1		
C[S+](C)[O-] [DMSO, dimethyl sulfoxide]					7920 mg/kg [Mouse]	40000 mg/kg [Rat]
